What all share (assay type): cell-based
The target of assay [1] is T1, von Hippel-Lindau disease tumor suppressor/Methylosome protein WDR77 (Homo sapiens, UniProt Q9BQA1+P40337). The assay is described as follows: PROTAC activity at MEP50/VHL in human MDA-MB-468 cells assessed as relative protein level at 5 uM measured after 24 hrs by Western blot analysis. Background: Immunoblotting shows a protein as a band on a membrane.
The target in assay [2] is T2, von Hippel-Lindau disease tumor suppressor/Protein arginine N-methyltransferase 5 (Homo sapiens, UniProt O14744+P40337). The assay is described as follows: PROTAC activity at […]/VHL in human MDA-MB-468 cells assessed as relative protein level at 0.5 uM measured after 24 hrs by Western blot analysis.
Assay [3] addresses T2, von Hippel-Lindau disease tumor suppressor/Protein arginine N-methyltransferase 5. The assay is described as follows: PROTAC activity at PRMT5/VHL in human MDA-MB-468 cells assessed as relative protein level at 5 uM measured after 24 hrs by Western blot analysis.
In assay [4] the target is T1, von Hippel-Lindau disease tumor suppressor/Methylosome protein WDR77. The assay is described as follows: PROTAC activity at MEP50/VHL in human MDA-MB-468 cells assessed as relative protein level at 0.5 uM measured after 24 hrs by Western blot analysis.

Molecules are shown by their SMILES. Calls of active or inactive are those of the source. No cut-off for these calls is given here.

T1 sequence (P40337 whole entry, looked up): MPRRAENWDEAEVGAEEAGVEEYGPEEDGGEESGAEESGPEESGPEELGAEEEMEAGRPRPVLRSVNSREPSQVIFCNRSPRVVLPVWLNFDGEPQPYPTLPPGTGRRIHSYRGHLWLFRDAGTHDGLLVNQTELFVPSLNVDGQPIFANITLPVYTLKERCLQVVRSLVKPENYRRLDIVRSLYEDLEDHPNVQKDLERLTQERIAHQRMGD
T1 sequence (Q9BQA1 whole entry, looked up): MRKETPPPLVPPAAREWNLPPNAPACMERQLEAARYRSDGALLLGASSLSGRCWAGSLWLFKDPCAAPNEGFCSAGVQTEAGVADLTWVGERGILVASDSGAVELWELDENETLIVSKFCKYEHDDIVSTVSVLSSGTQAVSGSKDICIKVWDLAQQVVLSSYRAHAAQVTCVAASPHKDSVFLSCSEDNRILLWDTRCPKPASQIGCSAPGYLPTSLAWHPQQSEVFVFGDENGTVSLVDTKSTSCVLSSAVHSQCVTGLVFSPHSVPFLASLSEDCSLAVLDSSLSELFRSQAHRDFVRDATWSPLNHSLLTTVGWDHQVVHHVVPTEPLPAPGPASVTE
T2 sequence (O14744 whole entry, looked up): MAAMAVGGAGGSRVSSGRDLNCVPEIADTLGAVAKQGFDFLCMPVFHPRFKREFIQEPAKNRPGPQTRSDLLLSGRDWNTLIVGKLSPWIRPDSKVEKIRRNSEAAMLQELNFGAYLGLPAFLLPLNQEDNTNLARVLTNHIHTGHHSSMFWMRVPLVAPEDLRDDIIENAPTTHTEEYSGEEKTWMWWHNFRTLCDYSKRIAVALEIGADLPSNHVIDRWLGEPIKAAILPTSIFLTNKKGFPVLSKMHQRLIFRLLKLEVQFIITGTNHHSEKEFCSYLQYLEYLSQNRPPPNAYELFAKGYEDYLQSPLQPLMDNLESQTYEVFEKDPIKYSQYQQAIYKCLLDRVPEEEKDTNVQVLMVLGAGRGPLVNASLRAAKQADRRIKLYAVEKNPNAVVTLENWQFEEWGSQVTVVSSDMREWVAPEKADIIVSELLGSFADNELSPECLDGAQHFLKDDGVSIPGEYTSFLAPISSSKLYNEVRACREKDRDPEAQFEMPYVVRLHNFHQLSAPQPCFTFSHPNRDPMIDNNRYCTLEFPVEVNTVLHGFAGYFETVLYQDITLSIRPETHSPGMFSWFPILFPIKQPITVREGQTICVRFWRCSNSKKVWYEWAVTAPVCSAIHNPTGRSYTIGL
T2 sequence (P40337 whole entry, looked up): as the sequence (P40337 whole entry, looked up) above

Turning to `Cc1ncsc1-c1ccc(CNC(=O)[C@@H]2C[C@@H](O)CN2C(=O)[C@@H](NC(=O)C2(F)CC2)C(C)(C)C)c(OCC(=O)NCCOCCOCCOCCC(=O)N2CCC(Nc3cc(C(=O)NC[C@H](O)CN4CCc5ccccc5C4)ncn3)CC2)c1`, the outcome in assay [1], in assay [2], in assay [3] and in assay [4] was Active.
`Cc1ncsc1-c1ccc([C@H](CC(=O)N2CCC(Nc3cc(C(=O)NC[C@H](O)CN4CCc5ccccc5C4)ncn3)CC2)NC(=O)[C@@H]2C[C@@H](O)CN2C(=O)[C@@H](NC(=O)C2(F)CC2)C(C)(C)C)cc1`: the outcome in assay [1], in assay [2], in assay [3] and in assay [4] was Active.
Take `Cc1ncsc1-c1ccc([C@H](C)NC(=O)[C@@H]2C[C@@H](O)CN2C(=O)[C@@H](NC(=O)COCCOCCOCCOCCOCC(=O)N2CCC(Nc3cc(C(=O)NC[C@H](O)CN4CCc5ccccc5C4)ncn3)CC2)C(C)(C)C)cc1`: the result in assay [1], in assay [2], in assay [3] and in assay [4] was Active.
Turning to `Cc1ncsc1-c1ccc(CNC(=O)[C@@H]2C[C@@H](O)CN2C(=O)[C@@H](NC(=O)C2(F)CC2)C(C)(C)C)c(OCC(=O)NCCOCCOCCC(=O)N2CCC(Nc3cc(C(=O)NC[C@H](O)CN4CCc5ccccc5C4)ncn3)CC2)c1`, the outcome in assay [1], in assay [2], in assay [3] and in assay [4] was inactive.
For the compound `Cc1ncsc1-c1ccc([C@H](C)NC(=O)[C@@H]2C[C@@H](O)CN2C(=O)[C@@H](NC(=O)CCOCCOCCOCCOCCC(=O)N2CCC(Nc3cc(C(=O)NC[C@H](O)CN4CCc5ccccc5C4)ncn3)CC2)C(C)(C)C)cc1`, the result in assay [1], in assay [2], in assay [3] and in assay [4] was Active.
In the case of `Cc1ncsc1-c1ccc([C@H](CC(=O)NCC(=O)N2CCC(Nc3cc(C(=O)NC[C@H](O)CN4CCc5ccccc5C4)ncn3)CC2)NC(=O)[C@@H]2C[C@@H](O)CN2C(=O)[C@@H](NC(=O)C2(F)CC2)C(C)(C)C)cc1`, the outcome in assay [1], in assay [2], in assay [3] and in assay [4] was Active.
Take `Cc1ncsc1-c1ccc(CNC(=O)[C@@H]2C[C@@H](O)CN2C(=O)[C@@H](NC(=O)C2(F)CC2)C(C)(C)C)c(OCC(=O)NCCOCCOCCOCCOCCC(=O)N2CCC(Nc3cc(C(=O)NC[C@H](O)CN4CCc5ccccc5C4)ncn3)CC2)c1`: the outcome in assay [1] was Active. The outcome in assay [2], in assay [3] and in assay [4] was inactive.
Consider `Cc1ncsc1-c1ccc([C@H](CC(=O)NCCCCCC(=O)N2CCC(Nc3cc(C(=O)NC[C@H](O)CN4CCc5ccccc5C4)ncn3)CC2)NC(=O)[C@@H]2C[C@@H](O)CN2C(=O)[C@@H](NC(=O)C2(F)CC2)C(C)(C)C)cc1`, for which the outcome in assay [1], in assay [2], in assay [3] and in assay [4] was Active.
On to `Cc1ncsc1-c1ccc(CNC(=O)[C@@H]2C[C@@H](O)CN2C(=O)[C@@H](NC(=O)C2(F)CC2)C(C)(C)C)c(OCC(=O)NCCOCCC(=O)N2CCC(Nc3cc(C(=O)NC[C@H](O)CN4CCc5ccccc5C4)ncn3)CC2)c1`, for which the outcome in assay [1], in assay [2], in assay [3] and in assay [4] was Active.
Consider `Cc1ncsc1-c1ccc([C@H](C)NC(=O)[C@@H]2C[C@@H](O)CN2C(=O)[C@@H](NC(=O)COCCOCCOCCOCCOCC(=O)N2CC(Nc3cc(C(=O)NC[C@H](O)CN4CCc5ccccc5C4)ccn3)C2)C(C)(C)C)cc1`, for which, in assay [1], the result was Active. For the same compound, the outcome in assay [2], in assay [3] and in assay [4] was inactive.
With `Cc1ncsc1-c1ccc([C@H](C)NC(=O)[C@@H]2C[C@@H](O)CN2C(=O)[C@@H](NC(=O)CCOCCOCCOCCOCCOCCC(=O)N2CCC(Nc3cc(C(=O)NC[C@H](O)CN4CCc5ccccc5C4)ncn3)CC2)C(C)(C)C)cc1`, the result in assay [1], in assay [2], in assay [3] and in assay [4] was Active.
On to `Cc1ncsc1-c1ccc([C@H](CC(=O)NCCOCCOCCC(=O)N2CCC(Nc3cc(C(=O)NC[C@H](O)CN4CCc5ccccc5C4)ncn3)CC2)NC(=O)[C@@H]2C[C@@H](O)CN2C(=O)[C@@H](NC(=O)C2(F)CC2)C(C)(C)C)cc1`, for which the outcome in assay [1], in assay [2], in assay [3] and in assay [4] was Active.
Regarding `Cc1ncsc1-c1ccc([C@H](CC(=O)NCCCCCCCC(=O)N2CCC(Nc3cc(C(=O)NC[C@H](O)CN4CCc5ccccc5C4)ncn3)CC2)NC(=O)[C@@H]2C[C@@H](O)CN2C(=O)[C@@H](NC(=O)C2(F)CC2)C(C)(C)C)cc1`, the outcome in assay [1], in assay [2], in assay [3] and in assay [4] was Active.
Take `Cc1ncsc1-c1ccc(CNC(=O)[C@@H]2C[C@@H](O)CN2C(=O)[C@@H](NC(=O)C2(F)CC2)C(C)(C)C)c(OCC(=O)N2CCC(Nc3cc(C(=O)NC[C@H](O)CN4CCc5ccccc5C4)ncn3)CC2)c1`: the result in assay [1], in assay [2], in assay [3] and in assay [4] was Active.
For `Cc1ncsc1-c1ccc([C@H](CC(=O)NCCCCC(=O)N2CCC(Nc3cc(C(=O)NC[C@H](O)CN4CCc5ccccc5C4)ncn3)CC2)NC(=O)[C@@H]2C[C@@H](O)CN2C(=O)[C@@H](NC(=O)C2(F)CC2)C(C)(C)C)cc1`, the result in assay [1], in assay [2], in assay [3] and in assay [4] was Active.
Consider `Cc1ncsc1-c1ccc(CNC(=O)[C@@H]2C[C@@H](O)CN2C(=O)[C@@H](NC(=O)C2(F)CC2)C(C)(C)C)c(OCC(=O)NCCCCCC(=O)N2CCC(Nc3cc(C(=O)NC[C@H](O)CN4CCc5ccccc5C4)ncn3)CC2)c1`, for which the result in assay [1], in assay [2], in assay [3] and in assay [4] was Active.
For `Cc1ncsc1-c1ccc([C@H](CC(=O)NCCCCCCC(=O)N2CCC(Nc3cc(C(=O)NC[C@H](O)CN4CCc5ccccc5C4)ncn3)CC2)NC(=O)[C@@H]2C[C@@H](O)CN2C(=O)[C@@H](NC(=O)C2(F)CC2)C(C)(C)C)cc1`, the outcome in assay [1], in assay [2], in assay [3] and in assay [4] was Active.
Regarding `Cc1ncsc1-c1ccc(CNC(=O)[C@@H]2C[C@@H](O)CN2C(=O)[C@@H](NC(=O)C2(F)CC2)C(C)(C)C)c(OCC(=O)NCCC(=O)N2CCC(Nc3cc(C(=O)NC[C@H](O)CN4CCc5ccccc5C4)ncn3)CC2)c1`, the result in assay [1], in assay [2], in assay [3] and in assay [4] was Active.

Source of the values: ChEMBL document CHEMBL6109159, “Discovery of a Potent and Selective Protein Arginine Methyltransferase 5 (PRMT5) PROTAC Degrader” (J Med Chem, 2025).
